{
  "source": "patent US11083779B2",
  "about": "“Method for treatment of encephalopathy” (priority 2018, dated 2021)",
  "origin": "cited, not measured here",
  "system": "toxic encephalopathy",
  "details": "PIRACETAM i.v. 10-15 minutes before transcranial electrical stimulation, two steps (77 Hz, 10 Hz)",
  "data": [
    {"compound": "NC(=O)CN1CCCC1=O", "note": "[PIRACETAM®, PIRACETAM]", "values": [
      {"measurement": "patient symptoms after treatment", "result": "decrease of headaches, giddiness and the improvement of sleep"}
    ]}
  ]
}
